In PMC3547732 (Chemistry Central Journal, 2012):

Key:
[1] = Enthalpy of solution by microreaction calorimetry; assay type: physicochemical; conditions: 25°C; for Molar enthalpy of solution in its own solvent, Solvates (ΔsolH^2): each solvate in its own solvent of solvation
Description: Molar enthalpy of solution (ΔHsol) was determined in phosphate buffer (pH8) as well as in methanol.
In order to determine the enthalpy associated with the solvation process the enthalpy of solution of a particular solvate was determined in its own solvent.
(3) ΔsolyH=ΔsolH^1−ΔsolH^2
Calorimetric studies were performed on Microreaction calorimeter obtained from Thermal Hazards Technology, UK. Two different solvents, viz, the phosphate buffer (pH 2) and methanol were used to determine the enthalpy of solution and the measurements were performed at 25°C. The size of sample used in this study ranged from 10 to 20 mg and was weighed (Sartorius Model CP225D) into a cylindrical glass tube covered with parafilm on one side. This cylindrical tube was submerged into the ampoule containing the solvent. A plunger with a cap was put from the open end of the tube. The same solvent was put into the reference ampoule. These were put into the sample and reference holes until both rest on the base of the holes. The apparatus was maintained at constant temperature at 25°C (±0.0005°C). The parafilm was shattered mechanically by means of plunger.

[2] = test system: Triton induced hyperlipidemia; assay: Hypolipidemic activity in Triton induced hyperlipidemia in rats; assay type: in vivo, male Wistar rats; conditions: Triton treated rats, 30 mg/kg oral gavage 2 h before Triton i.p., plasma 18 h after triton injection
Description: The rats were housed under optimal laboratory conditions, maintained on 12 h light and dark cycle and had free access to food (Hindustan Lever Products, Kolkata, India) and water. Animals were acclimatized to laboratory conditions before the tests. All experiments were carried out between 0900 and 1700 h. The experimental protocols were approved by the Institutional Animal Ethics Committee and conducted according to the Indian National Science Academy guidelines for the use and care of animals. Fifty five male Wistar rats were divided into the following 11 groups containing 5 animals in each group: Atrovastain and various solvates were freshly suspended in 0.5% carboxymethyl cellulose and administered by oral gavage. Two hours later, all groups except control animals received intraperitonial injection of Triton (100 mg/kg). Eighteen hours after triton injection, blood was collected from tail vein. Plasma was separated and stored at −20°C for further biochemical analysis. Total cholesterol and triglyceride were analyzed in plasma samples using diagnostic kits as per manufacturer instructions.

[3] = Desolvation of solvates by DSC and TGA; assay type: physicochemical; conditions: for Desolvation temperature: DSC desolvation endotherm maximum, 10°C/min; for Enthalpy of desolvation, ΔdesolvH calculated from equation 4: calculated from enthalpies of solution, heat capacities and enthalpy of vapourization; for Enthalpy of desolvation per mole of solvent (binding energy): equation 1 from DSC desolvation enthalpy and TGA mass loss
Text: The desolvation temperatures account for the stability of solvates as the desolvation temperature in all these forms is much higher than the boiling point of the corresponding solvent. The quantitative estimate of the stability of these solvates is established by determining the binding energy for the solvents in all the solvates using equation 1 where the percent mass loss measured over the TG desolvation step of each solvate (ΔmS%) was related to the enthalpy change calculated over the corresponding DSC desolvation endotherm (ΔHSexp).
(1) ΔHS=ΔHSexp×100Δms%×Ms
where ΔHS (J mol^-1) is the enthalpy of desolvation (or binding energy) per mole of the bound solvent, MS is the molecular mass of the solvent.
(4) ΔdesolyH=ΔsolnH^2−ΔsolnH^1−ΔCPTdesoly−25+1/2ΔyapH
. A mass between 2–8 mg was taken into the aluminium pan, covered with lid and sealed. DSC curves were obtained under a nitrogen purge of 50 mL per minute at a heating rate of 10°C per minute with the temperature range from 50-350°C.
Loss of solvent from the samples was characterized by TGA obtained by TA Instruments-Waters LLC, USA. TGA traces were recorded at heating rates of 10°C per minute under a nitrogen purge of 50 ml per minute. Samples with masses between 1–10 mg were analyzed using platinum pan. Mass loss (%) was calculated based on the mass of the original sample.

[4] = Enthalpy of solution by microreaction calorimetry; assay type: physicochemical; conditions: 25°C

Row | Compound | Molar enthalpy of solution in its own solvent, Solvates (ΔsolH^2) [1] | Molar enthalpy of solution, Methanol ΔsolH (methanol) [1] | Total Cholesterol [2] | Triglyceride [2] | Desolvation temperature ([3]; listed as Solvate-VI) | Desolvation temperature ([3]; listed as solvate-VI) | Enthalpy of desolvation, ΔdesolvH calculated from equation 4 [3] | Enthalpy of desolvation per mole of solvent (binding energy) [3] | Enthalpy of desolvation, ΔdesolvH from DSC [3] | Molar enthalpy of solution, Phosphate buffer (pH8) ΔsolH [4] | Desolvation temperature [3]
1 | CC(C)=O.CC(C)=O.CC(C)c1c(C(=O)Nc2ccccc2)c(-c2ccccc2)c(-c2ccc(F)cc2)n1CC[C@@H](O)C[C@@H](O)CC(=O)[O-].CC(C)c1c(C(=O)Nc2ccccc2)c(-c2ccccc2)c(-c2ccc(F)cc2)n1CC[C@@H](O)C[C@@H](O)CC(=O)[O-].CC(C)c1c(C(=O)Nc2ccccc2)c(-c2ccccc2)c(-c2ccc(F)cc2)n1CC[C@@H](O)C[C@@H](O)CC(=O)[O-].CC(C)c1c(C(=O)Nc2ccccc2)c(-c2ccccc2)c(-c2ccc(F)cc2)n1CC[C@@H](O)C[C@@H](O)CC(=O)[O-].CCO.[Ca+2].[Ca+2] [Solvate VI] | -2.581 kcal/mol | 1.22 kcal/mol | 197 mg/dL | 174 mg/dL | 72.53 °C | 72.5 °C | 12.43 kcal/mol | 15.69 kcal/mol | 13.56 kcal/mol | 8.35 kJ mol^-1 | 
2 | CC(C)c1c(C(=O)Nc2ccccc2)c(-c2ccccc2)c(-c2ccc(F)cc2)n1CC[C@@H](O)C[C@@H](O)CC(=O)[O-].CC(C)c1c(C(=O)Nc2ccccc2)c(-c2ccccc2)c(-c2ccc(F)cc2)n1CC[C@@H](O)C[C@@H](O)CC(=O)[O-].CO.[Ca+2] [Solvate V] | 0.507 kcal/mol | 0.507 kcal/mol | 198 mg/dL | 170 mg/dL |  |  | 6.381 kcal/mol | 13.12 kcal/mol | 6.279 kcal/mol | 3.85 kJ mol^-1 | 70.15 °C
